In patent publication US20250179066A1, “ZWITTERIONIC ANTIBACTERIAL COMPOUNDS” (Hoffmann-La Roche Inc., priority 2022, published 2025):
Where a name gives a salt, the structure may show the parent alone.

System: Acinetobacter baumannii ATCC17961
Assay: Antimicrobial susceptibility testing: 90% growth inhibitory concentration (IC90) determination
Format: cell-based
Details: Acinetobacter baumannii, ATCC17961, 16 h, 90% growth inhibitory concentration against Acinetobacter baumannii ATCC17961, Iso-Sensitest broth, OD 600 nm over 16 h; read-out: ATCC 17961 IC90
Experimental: The in vitro antimicrobial activity of the compounds was determined according to the following procedure: The assay used a 10-points Iso-Sensitest broth medium to measure quantitatively the in vitro activity of the compounds against Acinetobacter baumannii ATCC17961. Stock compounds in DMSO were serially twofold diluted (e.g. range from 10 to 0.0195 μM final concentration) in 384 wells microtiter plates and inoculated with 49 μL the bacterial suspension in Iso-Sensitest medium to have a final cell concentration of ˜5×10^(5) CFU/mL in a final volume/well of 50 μL/well. Microtiter plates were incubated at 35±2° C. Bacterial cell growth was determined with the measurement of optical density at λ=600 nm each min over a time course of 16 h. Growth inhibition was calculated during the logarithmic growth of the bacterial cells with determination of the concentration inhibiting 50% (IC50) and 90% (IC90) of the growth. Table 1 provides the 90% growth inhibitory concentrations (IC90) in micromoles per liter of the compounds of present invention obtained against the strain Acinetobacter baumannii ATCC17961.

COc1ccc(-n2cc(-c3cnc(C(=O)Nc4ccc(C(=O)N5CCN(C(=O)C6CC[N+](CC(=O)O)(CC7CNC7)CC6)CC5)c(Cl)c4)n3C)c(C(F)(F)F)n2)nc1 (stereo not shown) [Example 22, 2-[1-(azetidin-3-ylmethyl)-4-[4-[2-chloro-4-[[5-[1-(5-methoxy-2-pyridyl)-3-(trifluoromethyl)pyrazol-4-yl]-1-methyl-imidazole-2-carbonyl]amino]benzoyl]piperazine-1-carbonyl]piperidin-1-ium-1-yl]acetic acid. 1:1 formate] and Cn1c(-c2cn(-c3ccc(N)cn3)nc2C(F)(F)F)cnc1C(=O)Nc1ccc(C(=O)N2CCN(C(=O)[C@H]3CC[N@+](CC(=O)O)(CC4CNC4)CC3)CC2)c(Cl)c1 [Example 34, cis-2-[4-[4-[4-[[5-[1-(5-amino-2-pyridyl)-3-(trifluoromethyl)pyrazol-4-yl]-1-methyl-imidazole-2-carbonyl]amino]-2-chloro-benzoyl]piperazine-1-carbonyl]-1-(azetidin-3-ylmethyl)piperidin-1-ium-1-yl]acetic acid. 1:1 2,2,2-trifluoroacetic acid. 1:1 2,2,2-trifluoroacetate] are within 1.5-fold of each other in IC90: 330 nM for the first, 400 nM for the second.

Cn1c(-c2cn(-c3ccc(NCc4ccccn4)cn3)nc2C(F)(F)F)cnc1C(=O)Nc1ccc(C(=O)N2CCN(C(=O)C3CC[N+](CC(=O)O)(CC4CNC4)CC3)CC2)c(Cl)c1 (stereo not shown) [Example 23, 2-[1-(azetidin-3-ylmethyl)-4-[4-[2-chloro-4-[[1-methyl-5-[1-[5-(2-pyridylmethylamino)-2-pyridyl]-3-(trifluoromethyl)pyrazol-4-yl]imidazole-2-carbonyl]amino]benzoyl]piperazine-1-carbonyl]piperidin-1-ium-1-yl]acetic acid. 1:1 2,2,2-trifluoroacetate] and CNc1ccc(-n2cc(-c3cnc(C(=O)Nc4ccc(C(=O)N5CCN(C(=O)C6CC[N+](CC(=O)O)(CC7CNC7)CC6)CC5)c(Cl)c4)n3C)c(C(F)(F)F)n2)nc1 (stereo not shown) [Example 25, 2-[1-(azetidin-3-ylmethyl)-4-[4-[2-chloro-4-[[1-methyl-5-[1-[5-(methylamino)-2-pyridyl]-3-(trifluoromethyl)pyrazol-4-yl]imidazole-2-carbonyl]amino]benzoyl]piperazine-1-carbonyl]piperidin-1-ium-1-yl]acetic acid. 1:1 formate] are within 1.5-fold of each other in IC90: 340 nM for the first, 350 nM for the second.

Cn1c(-c2cn(-c3ccc(NCC4(N)CCCC4)cn3)nc2C(F)(F)F)cnc1C(=O)Nc1ccc(C(=O)N2CCN(C(=O)C3CC[N+](CC(=O)O)(CC4CNC4)CC3)CC2)c(Cl)c1 (stereo not shown) [Example 24, 2-[4-[4-[4-[[5-[1-[5-[(1-aminocyclopentyl)methylamino]-2-pyridyl]-3-(trifluoromethyl)pyrazol-4-yl]-1-methyl-imindazole-2-carbonyl]amino]-2-chloro-benzoyl]piperazine-1-carbonyl]-1-(azetidin-3-ylmethyl)piperidin-1-ium-1-yl]acetic acid. 1:1 2,2,2-trifluoroacetic acid. 1:1 2,2,2-trifluoroacetate] and CNc1ccc(-n2cc(-c3cnc(C(=O)Nc4ccc(C(=O)N5CCN(C(=O)[C@H]6CC[N@+](CC(=O)O)(CC7CNC7)CC6)CC5)c(Cl)c4)n3C)c(C(F)(F)F)n2)nc1 [Example 29, cis-2-[1-(azetidin-3-ylmethyl)-4-[4-[2-chloro-4-[[1-methyl-5-[1-[5-(methylamino)-2-pyridyl]-3-(trifluoromethyl)pyrazol-4-yl]imidazole-2-carbonyl]amino]benzoyl]piperazine-1-carbonyl]piperidin-1-ium-1-yl]acetic acid. 1:1 2,2,2-trifluoroacetate] are within 1.5-fold of each other in IC90: 350 nM for the first, 360 nM for the second.

Cn1c(-c2cn(-c3ccc(N4CCOCC4)cn3)nc2C(F)(F)F)cnc1C(=O)Nc1ccc(C(=O)N2CCN(C(=O)C3CC[N+](CC(=O)O)(CC4CNC4)CC3)CC2)c(Cl)c1 (stereo not shown) [Example 26, 2-[1-(azetidin-3-ylmethyl)-4-[4-[2-chloro-4-[[1-methyl-5-[1-(5-morpholino-2-pyridyl)-3-(trifluoromethyl)pyrazol-4-yl]imidazole-2-carbonyl]amino]benzoyl]piperazine-1-carbonyl]piperidin-1-ium-1-yl]acetic acid. 1:1 formate] and COCCNc1ccc(-n2cc(-c3cnc(C(=O)Nc4ccc(C(=O)N5CCN(C(=O)[C@H]6CC[N@+](CC(=O)O)(CC7CNC7)CC6)CC5)c(Cl)c4)n3C)c(C(F)(F)F)n2)nc1 [Example 31, cis-2-[1-(Azetidin-3-ylmethyl)-4-[4-[2-chloro-4-[[5-[1-[5-(2-methoxyethylamino)-2-pyridyl]-3-(trifluoromethyl)pyrazol-4-yl]-1-methyl-imidazole-2-carbonyl]amino]benzoyl]piperazine-1-carbonyl]piperidin-1-ium-1-yl]acetic Acid;2,2,2-trifluoroacetate] are within 1.5-fold of each other in IC90: 360 nM for the first, 370 nM for the second.

Cn1c(-c2cn(-c3ccc4[nH]ccc4n3)nc2C(F)(F)F)cnc1C(=O)Nc1ccc(C(=O)N2CCN(C(=O)[C@H]3CC[N@+](CC(=O)O)(CC4CNC4)CC3)CC2)c(Cl)c1 [Example 27, cis-2-[1-(azetidin-3-ylmethyl)-4-[4-[2-chloro-4-[[1-methyl-5-[1-(1H-pyrrolo[3,2-b]pyridin-5-yl)-3-(trifluoromethyl)pyrazol-4-yl]imidazole-2-carbonyl]amino]benzoyl]piperazine-1-carbonyl]piperidin-1-ium-1-yl]acetic acid. 1:1 2,2,2-trifluoroacetate] and Cn1c(-c2cn(-c3ccc4[nH]c(CO)cc4n3)nc2C(F)(F)F)cnc1C(=O)Nc1ccc(C(=O)N2CCN(C(=O)[C@H]3CC[N@+](CC(=O)O)(CC4CNC4)CC3)CC2)c(Cl)c1 [Example 33, cis-2-[1-(azetidin-3-ylmethyl)-4-[4-[2-chloro-4-[[1-methyl-5-[1-(2-methylol-1H-pyrrolo[3,2-b]pyridin-5-yl)-3-(trifluoromethyl)pyrazol-4-yl]imidazole-2-carbonyl]amino]benzoyl]piperazine-1-carbonyl]piperidin-1-ium-1-yl]acetic acid. 1:1 2,2,2-trifluoroacetate] are within 1.5-fold of each other in IC90: 360 nM for the first, 380 nM for the second.

Cn1c(-c2cn(-c3ccc(NC[C@@H]4CCCN4)cn3)nc2C(F)(F)F)cnc1C(=O)Nc1ccc(C(=O)N2CCN(C(=O)C3CC[N+](CC(=O)O)(CC4CNC4)CC3)CC2)c(Cl)c1 (stereo partly drawn) [Example 28, 2-[1-(azetidin-3-ylmethyl)-4-[4-[2-chloro-4-[[1-methyl-5-[1-[5-[[(2S)-pyrrolidin-2-yl]methylamino]-2-pyridyl]-3-(trifluoromethyl)pyrazol-4-yl]imidazole-2-carbonyl]amino]benzoyl]piperazine-1-carbonyl]piperidin-1-ium-1-yl]acetic acid. 1:1 2,2,2-trifluoroacetic acid. 1:1 2,2,2-trifluoroacetate] and COc1ccc(-n2cc(-c3cnc(C(=O)Nc4ccc(C(=O)N5CCN(C(=O)C6CC[N+](CC(=O)O)(CC7CNC7)CC6)CC5)c(Cl)c4)n3C)c(C(F)(F)F)n2)cc1 (stereo not shown) [Example 37, 2-[1-(azetidin-3-ylmethyl)-4-[4-[2-chloro-4-[[5-[1-(4-methoxyphenyl)-3-(trifluoromethyl)pyrazol-4-yl]-1-methyl-imidazole-2-carbonyl]amino]benzoyl]piperazine-1-carbonyl]piperidin-1-ium-1-yl]acetic acid. 1:1 formate] are within 1.5-fold of each other in IC90: 360 nM for the first, 420 nM for the second.

Cn1c(-c2cn(-c3ccc(N)cn3)nc2C(F)(F)F)cnc1C(=O)Nc1ccc(C(=O)N2CCN(C(=O)C3CC[N+](CCCN)(CC(=O)O)CC3)CC2)c(Cl)c1 (stereo not shown) [Example 30, 2-[1-(3-aminopropyl)-4-[4-[4-[[5-[1-(5-amino-2-pyridyl)-3-(trifluoromethyl)pyrazol-4-yl]-1-methyl-imidazole-2-carbonyl]amino]-2-chloro-benzoyl]piperazine-1-carbonyl]piperidin-1-ium-1-yl]acetic acid. 1:1 2,2,2-trifluoroacetate] and Cn1c(-c2cn(-c3ccc(N)cn3)nc2C(F)(F)F)cnc1C(=O)Nc1ccc(C(=O)N2CCN(C(=O)[C@H]3CC[N@@+](CCCN)(CC(=O)O)CC3)CC2)c(Cl)c1 [Example 32, cis-2-[1-(3-aminopropyl)-4-[4-[4-[[5-[1-(5-amino-2-pyridyl)-3-(trifluoromethyl)pyrazol-4-yl]-1-methyl-imidazole-2-carbonyl]amino]-2-chloro-benzoyl]piperazine-1-carbonyl]piperidin-1-ium-1-yl]acetic acid. 1:1 2,2,2-trifluoroacetate] are the same in IC90: 370 nM for the first, 370 nM for the second.

Cn1c(-c2cn(-c3ccc(N)cn3)nc2C(F)(F)F)cnc1C(=O)Nc1ccc(C(=O)N2CCN(C(=O)CCC[N+](CCCN)(CCCN)CC(=O)O)CC2)c(Cl)c1 [Example 35, bis(3-aminopropyl)-[4-[4-[4-[[5-[1-(5-amino-2-pyridyl)-3-(trifluoromethyl)pyrazol-4-yl]-1-methyl-imidazole-2-carbonyl]amino]-2-chloro-benzoyl]piperazino]-4-keto-butyl]-(carboxymethyl)ammonium. 1:1 2,2,2-trifluoroacetic acid. 1:1 2,2,2-trifluoroacetate] and Cn1c(-c2cn(-c3ccc(NCCN)cn3)nc2C(F)(F)F)cnc1C(=O)Nc1ccc(C(=O)N2CCN(C(=O)CCC[N+](CCCCN)(CCCCN)CC(=O)O)CC2)c(Cl)c1 [Example 36, bis(4-aminobutyl)-[4-[4-[4-[[5-[1-[5-(2-aminoethylamino)-2-pyridyl]-3-(trifluoromethyl)pyrazol-4-yl]-1-methyl-imidazole-2-carbonyl]amino]-2-chloro-benzoyl]piperazino]-4-keto-butyl]-(carboxymethyl)ammonium. 1:2 2,2,2-trifluoroacetic acid. 1:1 2,2,2-trifluoroacetate] are within 1.5-fold of each other in IC90: 400 nM for the first, 420 nM for the second.
